Here are results for two compounds from US20230233674A1 (priority 2022, published 2023).

For data set [1] the following is noted: cited from earlier work.
For data set [2], the system named is Influenza A/California/04/2009 (H1N1). The arrangement: species or system mice. The conditions noted are these: mouse, in vivo.

For “2′-3″cyclic guanosine monophosphate adenosine monophosphate [cGAMP]”, the in vivo half-life in data set [1] is given as approximately 35 min.

For the compound `CCOC(=O)C1=C[C@@H](OC(CC)CC)[C@H](NC(C)=O)[C@@H](N)C1` [Oseltamivir], the “mean peak weight loss” value in data set [2] is −32%.
